From publication PMC10477861, “Efficient Mining of Anticancer Peptides from Gut Metagenome” (Advanced Science, 2023)

Legend:
Details in all cases: 25 µM pACP, 24 h, maintenance medium 1% FBS, ratio of viability to vehicle (PBS), at least three technical repetitions
LCC = assay: MTT primary screening of anticancer activity, LCC; assay type: cell-based
Excerpt: (§1) We successfully chemically synthesized 40 pACPs for the purpose of in vitro or in vivo characterization of their potential anticancer efficacy. In the initial step, we conducted an in vitro primary screen of these 40 pACPs using a panel of 16 different cancer cell lines, including four human CRC lines (HT29, Caco2, HCT116, and […]), as well as 12 other cancer models (Table S4, Supporting Information). We deliberately selected a diverse panel of cell lines to assess the effect of pACPs across various genetic backgrounds. Briefly, the cancer cells were cultured in specific media (details provided in the Experimental Section) and then treated with pACPs at a final concentration of 25 µM. Peptides with minimum effective inhibition concentrations >25 µM were considered non‐ACPs. After exposure to pACPs, the survival rate of the cancer cells was measured using the MTT assay. Remarkably, 39 out of the 40 pACPs (97.5%) induced at least 20% inhibition in at least one cell line (Figure 3a and Table S5, Supporting Information). […] Thus, our method successfully identified pACPs with a very high rate of anticancer effects across various cancer cell lines.
(§2) To evaluate the activity of the 40 potentially effective pACPs, a panel of 16 cancer cell lines was treated, including human CRC cell lines (HT29, Caco‐2, HCT116). Details of the cell lines used, respective media, and culture conditions were presented in Table S1 (Supporting Information). Once the cells reached 60% confluence, it was incubated with each candidate peptide at a concentration of 25 µM pACPs for 24 h. Concurrently, the complete medium was replaced with a maintenance medium containing only 1% FBS. Subsequently, the viability of each cell line using the MTT Cell Proliferation and Cytotoxicity Assay Kit according to the manufacturer's instructions was assessed. […] For the CRC cell line CT26, it was calculated the CC50 value using two peptides (pACP1780 and pACP2283) with relevant data presented in Table S6 (Supporting Information). The calculation was performed using an online tool: https://www.aatbio.com/tools/ic50‐calculator.

MDA-MB-453 = assay: MTT primary screening of anticancer activity, MDA-MB-453; assay type: cell-based
Excerpt: as §1, §2

Caco2 = assay: MTT primary screening of anticancer activity, Caco2; assay type: cell-based, Human
Excerpt: as §1, §2

BT474 = assay: MTT primary screening of anticancer activity, BT474; assay type: cell-based
Excerpt: as §1, §2

SK-BR-3 = assay: MTT primary screening of anticancer activity, SK-BR-3; assay type: cell-based
Excerpt: as §1, §2

MDA-MB-231 = assay: MTT primary screening of anticancer activity, MDA-MB-231; assay type: cell-based
Excerpt: as §1, §2

EFM192A = assay: MTT primary screening of anticancer activity, EFM192A; assay type: cell-based
Excerpt: as §1, §2

T47D = assay: MTT primary screening of anticancer activity, T47D; assay type: cell-based
Excerpt: as §1, §2

HT29 = assay: MTT primary screening of anticancer activity, HT29; assay type: cell-based, Human
Excerpt: as §1, §2

CT26 = assay: MTT primary screening of anticancer activity, CT26; assay type: cell-based, Murine
Excerpt: as §1, §2

MDA-MB-468 = assay: MTT primary screening of anticancer activity, MDA-MB-468; assay type: cell-based
Excerpt: as §1, §2

B16 = assay: MTT primary screening of anticancer activity, B16; assay type: cell-based, Mouse
Excerpt: as §1, §2

MDA-MB-436 = assay: MTT primary screening of anticancer activity, MDA-MB-436; assay type: cell-based
Excerpt: as §1, §2

MCF7 = assay: MTT primary screening of anticancer activity, MCF7; assay type: cell-based
Excerpt: as §1, §2

HCT116 = assay: MTT primary screening of anticancer activity, HCT116; assay type: cell-based, Human
Excerpt: as §1, §2

Hela = assay: MTT primary screening of anticancer activity, Hela; assay type: cell-based, Human
Excerpt: as §1, §2

Measured: Survival rate of cancer cells in primary screening

KSLQMVLSFVIIFADKKKTLATLIVAKKKKGW [pACP1096]
0.71: HT29
0.69: MDA-MB-436
1.00: all other assays above

LARPDAAPKKQLRRPLRFRQPEWRRISKIHHIPRRFRRA [pACP1156]
0.74: T47D | MDA-MB-436
0.78: B16
1.00: all other assays above

LLSDFRQYRTKIVRQMRRQIFRQMKQKAE [pACP1210]
0.65: T47D
0.76: B16
0.79: MCF7
1.00: all other assays above

NFWLSTLTGHGFCAVVSAARAGS [pACP1292]
0.40: EFM192A
0.76: T47D
0.79: MCF7
0.74: MDA-MB-436
1.00: all other assays above

NLTPPSRRATSPIFCVAKHRGGVCECPTIPQGIGEGVKGHSPFEVEG [pACP1349]
0.62: T47D
0.66: B16
1.00: all other assays above

NQRKRTACDRRRSICDERIAAGICKRNFRCKKYLKINGTIGLSIRLGKLG [pACP1381]
0.76: B16
0.69: Caco2 | HT29
1.00: all other assays above

NSFCRQTALCSVALGQYRTKIVRQMRRQIFRQMKQKAE [pACP1403]
0.73: MDA-MB-468
0.71: T47D
1.00: all other assays above
